Holding throughout (assay type): cell-based
Assay [1] concerns HDF normal diploid fibroblast cells. The assay can be described thus: MTT assay, HDF. The note with it: 72 h. On the procedure: Compounds are tested for their ability to inhibit cell proliferation and cell viability. The metabolic conversion of 3-(4,5-dimethylthiazol-2-yl)-2,5-diphenyltetrazolium bromide (MTT, Sigma #M2128) to a reduced form is a commonly used measure of cellular viability. Following is the procedure: Cells are maintained in 75 cm^2 tissue culture flasks until ready for use. The cells are grown and plated for the assay in Dulbecco's modified Eagle's media (DMEM) containing 10% fetal bovine serum. For example, the following cell lines can be used: a) human foreskin fibroblasts (HFF); b) HT29 (human colon carcinoma cell line); c) MDA-MB468 (human breast carcinoma cell line); d) RKO (human colon adenocarcinoma cell line); e) SW620 (human colon carcinoma cell line); f A549 (human lung carcinoma cell line); and g) MIA PACA (human pancreatic carcinoma cell line). Cells are maintained at 37° C. in 10% CO2, 90% humidified air. Cells are plated in 96-well tissue culture plates at the densities listed below. 100 μL of cell suspension is added to each well of the 96-well plate except the top row of the plate which contains no cells and serves as a reference for the spectrophotometer. [table] Cells are incubated overnight in DMEM containing 10% fetal bovine serum at 37° C. in 10% CO2, 90% humidified air prior to dosing. […] Compounds with solubilities of less than 30 μM are dosed at the highest soluble concentration. Stock solutions of compounds are made in 100% dimethyl sulfoxide (DMSO). Stock solutions are diluted in DMEM containing 100 μg/ml gentamicin and 0.3 to 0.6% DMSO at the twice the highest concentration to be placed on the cells. If compounds have been dissolved in DMSO the final concentration of DMSO on the cells is kept below 0.3%. Three-fold serial dilutions are performed on each compound to prepare 10 concentrations of the compound for dosing. 100 μl of diluted compound is added to the 100 μl of media currently on the dish. For each concentration of compound, 2–4 replicate wells are prepared. Cells are returned to incubator and allowed to proliferate in the presence of compound for 72 h before addition of MTT. […] After 4 h incubation the media, compound and MTT mixture is aspirated from the plates and 100 μl of 100% DMSO is added to each well in addition to 25 μl of Sorenson's Buffer (0.1M glycine, 0.1M NaCl, pH 10.5). Quantitation of metabolic reduction of MTT in each plate is performed by reading optical density at 570 nm wavelength on a Molecular Devices UVmax microplate reader. […] HDF are normal diploid fibroblast cells. RKO are colon adenocarcinoma cells and MES/SA are ovarian carcinoma cells.
For orientation: Formazan colour is commonly taken as a measure of viable cells.

Assay [2] deals with RKO (human colon adenocarcinoma cell line). Kind of assay: MTT assay, RKO. The conditions noted are these: 72 h. As for the experimental part: Compounds are tested for their ability to inhibit cell proliferation and cell viability. The metabolic conversion of 3-(4,5-dimethylthiazol-2-yl)-2,5-diphenyltetrazolium bromide (MTT, Sigma #M2128) to a reduced form is a commonly used measure of cellular viability. Following is the procedure: Cells are maintained in 75 cm^2 tissue culture flasks until ready for use. The cells are grown and plated for the assay in Dulbecco's modified Eagle's media (DMEM) containing 10% fetal bovine serum. For example, the following cell lines can be used: a) human foreskin fibroblasts (HFF); b) HT29 (human colon carcinoma cell line); c) MDA-MB468 (human breast carcinoma cell line); d) RKO (human colon adenocarcinoma cell line); e) SW620 (human colon carcinoma cell line); f A549 (human lung carcinoma cell line); and g) MIA PACA (human pancreatic carcinoma cell line). Cells are maintained at 37° C. in 10% CO2, 90% humidified air. Cells are plated in 96-well tissue culture plates at the densities listed below. 100 μL of cell suspension is added to each well of the 96-well plate except the top row of the plate which contains no cells and serves as a reference for the spectrophotometer. [table] Cells are incubated overnight in DMEM containing 10% fetal bovine serum at 37° C. in 10% CO2, 90% humidified air prior to dosing. […] Compounds with solubilities of less than 30 μM are dosed at the highest soluble concentration. Stock solutions of compounds are made in 100% dimethyl sulfoxide (DMSO). Stock solutions are diluted in DMEM containing 100 μg/ml gentamicin and 0.3 to 0.6% DMSO at the twice the highest concentration to be placed on the cells. If compounds have been dissolved in DMSO the final concentration of DMSO on the cells is kept below 0.3%. Three-fold serial dilutions are performed on each compound to prepare 10 concentrations of the compound for dosing. 100 μl of diluted compound is added to the 100 μl of media currently on the dish. […] Quantitation of metabolic reduction of MTT in each plate is performed by reading optical density at 570 nm wavelength on a Molecular Devices UVmax microplate reader. […]

Assay [3] concerns human diploid fibroblasts (HDF-3). Kind of assay: G1-S progression assay (BrdU incorporation). The note with it: read-out: G1/S Chkpt (IC50). As for the experimental part:
This assay is designed to determine the ability of compounds to inhibit progression of cells from G1 into S-phase. […] The protocol is as follows: • (1) Grow human diploid fibroblasts (HDF-3) in 100 mm tissue culture dish to confluency. (2) Plate 6–7×10^3 cells/well in a 96 well plate in 100 μl of DMEM. […] Dilute compound in DMEM containing DMSO and add 100 μl to each well so that the DMSO conc. is 0.6–0.8% in 200 μl final volume. (4) Two h after addition of compound, add 20 μl of 100 μM Br dU (final conc. 10 μM) Make 100 μM solution in DMEM from 10 mM stock solution. (5) After 4 h, add 200 μl PBS to each well and remove the contents of the wells by inverting the plate and soaking on to the paper towel. Repeat the washing step three times, with 400 ul PBS each time. (6) Fix the cells and denature the DNA by adding 200 μl fixation/denaturation solution to each well for 30–40 min. (7) Remove the fixation/denaturation solution by tapping the plate on the paper towel and add 75 μl of anti BrdU peroxidase antibody to each well. (dilute the antibody to 0.1 U/mL from 15 U/mL stock in PBS containing 1% BSA, Fraction V). Incubate the plate O/N at 4° C. (8) Remove the antibody solution and wash wells four times with 400 μl of PBS. Let the wash solution stay for 3–4 min during each wash. (9) Drain the wells and add 100 μl of chemiluminiscence Elisa reagent (Prepare the reagent 15–20 min before use to bring it to rt by mixing 100 parts of reagent A with 1 part of reagent B). (10) Read the plate in a luminometer. Take 2–3 readings within 6–7 min. Perform the following controls: [table] Deoxybromouridine (BrdU), anti BrdU peroxidase antibodies, fixation/denaturation solution, chemiluminiscence reagent and BSA Fraction V, were obtained from Boehringer Mannheim. The 96-well white plate with clear bottom were purchased from Corning Costar Corporation. Dulbecco's Modified Eagle Medium containing high glucose, L-glutamine and pyridoxine HCl was obtained from GIBCO BRL.
(Incorporation of labelled thymidine or its analogues reports DNA synthesis.)

Like-named read-outs stand apart in the source and are kept apart here.

On to `O=C1Nc2ccc3ncsc3c2C1=CNc1ccc(S(=O)(=O)NCc2ccncc2)cc1` [Example 104, 4-[(7-Oxo-6,7-dihydro-1-thia-3,6-diaza-as-indacen-8-ylidenemethyl)amino]-N-pyridinyl-4-yl-methyl benzenesulfonamide], for which the IC50 in assay [1], in assay [2] and in assay [3] was 1100 to 5000 nM throughout.

For the molecule `COC(=O)c1ccc2c(c1)/C(=C/Nc1ccc(S(N)(=O)=O)cc1)C(=O)N2` [Example 27], the IC50 in assay [1] (Fibroblast) fell in the range of 1100 to 5000 nM; in assay [2] (Homo sapiens), 1100 to 5000 nM; in assay [3] (Homo sapiens, Fibroblast), 1100 to 5000 nM.

For `NS(=O)(=O)c1ccc(NN=C2C(=O)Nc3ccc(-c4cnco4)cc32)cc1` [Example 36], the IC50 fell in the range of 1100 to 5000 nM in assay [1] (Fibroblast); 600 to 1000 nM in assay [2] (Homo sapiens); 600 to 1000 nM in assay [3] (Homo sapiens, Fibroblast).

(Values after patent US7105529B2, “Substituted oxindole derivatives as protein tyrosine and as protein serine/threonine kinase inhibitors and compositions and methods of treating chemotherapy and radiation therapy side effects” (SmithKline Beecham Corporation, priority 1997, dated 2006).)
